Data: patent US4560662A, “Streptomyces antibioticus ATCC 31771 and process for obtaining same” (priority 1981, dated 1985)
≈ marks a conversion by molar mass, not a printed value. Where two headings read alike, the source gives them in different places.

How the values were obtained:
[1] = tested on: Staphylococcus aureus ATCC 6538 P; test: Bacteriostatic power in solid medium (MIC), aerobic Gram positive; type: cell-based; conditions: Staphylococcus aureus
[2] = tested on: Staphylococcus aureus LRP 14; test: as above; type: cell-based; conditions: Staphylococcus aureus
[3] = tested on: Streptococcus faecalis LRP 7; test: as above; type: cell-based; conditions: Enterococcus faecalis
[4] = tested on: Streptococcus faecalis sub. zymogenes ATCC 12958; test: as above; type: cell-based; conditions: Enterococcus faecalis
[5] = tested on: Streptococcus pneumonieae ATCC 6303; test: as above; type: cell-based; conditions: Streptococcus
[6] = tested on: Streptococcus pneumonieae LRP 52; test: as above; type: cell-based; conditions: Streptococcus
[7] = tested on: Streptococcus pneumonieae LRP 53; test: as above; type: cell-based; conditions: Streptococcus
[8] = tested on: Streptococcus pyogenes ATCC 8668; test: as above; type: cell-based; conditions: Streptococcus pyogenes
[9] = tested on: Streptococcus pyogenes LRP 197; test: as above; type: cell-based; conditions: Streptococcus pyogenes
[10] = tested on: Corynebacterium diphteriae LRP 24; test: as above; type: cell-based; conditions: Corynebacterium
[11] = tested on: Micrococcus luteus ATCC 9341; test: as above; type: cell-based; conditions: Micrococcus luteus
[12] = tested on: Micrococcus luteus ATCC 15957; test: as above; type: cell-based; conditions: Micrococcus luteus, ATCC15957, LRP 193, Erythromicina resistant, read-out: minimum inhibiting concentration
Excerpt: (§1) Turning now to an examination of the novel macrolide antibiotics produced according to the present invention, they are all characterized by a bacteriostatic spectrum like that of erythromycin and by the stability in acidic environment, whereby their direct administration by oral route is possible, without having recourse to esters and/or salts, showing the afore mentioned disadvantages and problems. The above is confirmed by the following Table 1, wherein the MIC values are reported, indicating the bacteriostatic power, and by the Table 2, giving the stability values in acidic environment. Without having to be construed in a limiting sense, it seems plausible that the greater stability of the macrolide. antibiotics of the present invention can be attributed to the presence in the molecule of the antibiotic of the neutral sugar oleandrose (J. Antib. (1976) XXIX (7), 728).
(§2) Bacteriostatic power in solid medium of Erythromycin A, Erythromycin B,
(§3) aerobic and anaerobic bacteria, Gram positive and Gram negative minimum
(§4) inhibiting concentrations expressed in mcg/ml.

[13] = tested on: Staphylococcus aureus ATCC 14154; test: as above; type: cell-based; conditions: Staphylococcus aureus, ATCC14154, LRP 78, Erythromicina resistant, read-out: minimum inhibiting concentration
Excerpt: as §1, §2, §3, §4

Bacillus subtilis LRP 25 = test: as above; type: cell-based; conditions: Bacillus subtilis
[14] = tested on: Haemophilus influenzae ATCC 19418; test: Bacteriostatic power in solid medium (MIC), aerobic Gram negative; type: cell-based; conditions: Haemophilus influenzae, ATCC19418, LRP 213, read-out: minimum inhibiting concentration
Excerpt: as §1, §2, §3, §4

[15] = tested on: Pseudomonas aeruginosa LRP 9; test: as above; type: cell-based; conditions: Pseudomonas aeruginosa, LRP9, read-out: minimum inhibiting concentration
Excerpt: as §1, §2, §3, §4

Shigella sonnei LRP 5 = test: as above; type: cell-based; conditions: Shigella sonnei, LRP5, read-out: minimum inhibiting concentration
Excerpt: as §1, §2, §3, §4

[16] = tested on: Neisseria Gonorrhoeae ATCC 19424; test: as above; type: cell-based; conditions: Neisseria gonorrhoeae
Escherichia coli LRP 50 = test: as above; type: cell-based; conditions: Escherichia coli
[17] = tested on: Klebsiella pneumoniae LRP 54; test: as above; type: cell-based; conditions: Klebsiella pneumoniae
[18] = tested on: Proteus vulgaris ATCC 6380; test: as above; type: cell-based; conditions: Proteus vulgaris
Salmonella typhi LRP 8 = test: as above; type: cell-based; conditions: Salmonella enterica, TYPHI, read-out: minimum inhibiting concentration
[19] = tested on: Acholeplasma laidlawii ATCC 23206; test: as above; type: cell-based; conditions: Acholeplasma laidlawii
[20] = tested on: Mycoplasma hominis I ATCC 14097; test: as above; type: cell-based; conditions: Metamycoplasma hominis
[21] = tested on: Clostridium perfrigens ATCC 3624; test: Bacteriostatic power in solid medium (MIC), anaerobic; type: cell-based; conditions: Clostridium, ATCC3624, LRP 206, read-out: minimum inhibiting concentration
[22] = tested on: Bacteroides fragilis ATCC 23745; test: as above; type: cell-based; conditions: Bacteroides fragilis
[23] = tested on: Fusobacterium necrophorum ATCC 27852; test: as above; type: cell-based; conditions: Fusobacterium necrophorum, ATCC27852, read-out: minimum inhibiting concentration
physchem = type: physicochemical; conditions: acidic environment
Excerpt: t 1/2 represents the half life time of the antibiotics as determined by
high pressure liquid phase chromatography (HPLC).

With `CC[C@H]1OC(=O)[C@H](C)[C@@H](O[C@H]2C[C@@](C)(OC)[C@@H](O)[C@H](C)O2)[C@H](C)[C@@H](O[C@@H]2O[C@H](C)C[C@H](N(C)C)[C@H]2O)[C@](C)(O)C[C@@H](C)C(=O)[C@H](C)[C@@H](O)[C@H]1C` [Erythromycin B, reference compound] the MIC ([1]; ATCC6538, solid medium, LRP 39, read-out: minimum inhibiting concentration) was 0.097 µg/mL (≈ 0.135 µM), the MIC ([2]; LRP14, solid medium, LRP 14, Penycilline resistant, read-out: minimum inhibiting concentration) was 0.195 µg/mL (≈ 0.272 µM) and the MIC ([3]; LRP7, solid medium, LRP 7, read-out: minimum inhibiting concentration) was 0.195 µg/mL (≈ 0.272 µM). The MIC ([4]; ATCC12958, solid medium, LRP 61, read-out: minimum inhibiting concentration) was 0.195 µg/mL (≈ 0.272 µM), the MIC ([5]; ATCC6303, solid medium, LRP 35, read-out: minimum inhibiting concentration) was 0.024 µg/mL (≈ 0.0334 µM) and the MIC ([6]; LRP52, solid medium, LRP 52, read-out: minimum inhibiting concentration) was 0.024 µg/mL (≈ 0.0334 µM). For the same molecule, the MIC ([7]; LRP53, solid medium, LRP 53, read-out: minimum inhibiting concentration) was 0.024 µg/mL (≈ 0.0334 µM), the MIC ([8]; ATCC8668, solid medium, LRP 34, read-out: minimum inhibiting concentration) was 0.024 µg/mL (≈ 0.0334 µM) and the MIC ([9]; LRP197, solid medium, LRP 197, read-out: minimum inhibiting concentration) was 0.024 µg/mL (≈ 0.0334 µM). It also gave an MIC ([10]; LRP24, solid medium, LRP 24, read-out: minimum inhibiting concentration) of 0.012 µg/mL (≈ 0.0167 µM), an MIC ([11]; ATCC9341, solid medium, LRP 6, read-out: minimum inhibiting concentration) of 0.006 µg/mL (≈ 0.00836 µM) and an MIC [12] greater than 25 µg/mL. For the same molecule, the MIC [13] was greater than 25 µg/mL, the MIC (Bacillus subtilis LRP 25; LRP25, solid medium, LRP 25, read-out: minimum inhibiting concentration) was 0.049 µg/mL (≈ 0.0683 µM) and the MIC [14] was 6.25 µg/mL (≈ 8.71 µM). For the same molecule, the MIC [15] was greater than 25 µg/mL, the MIC (Shigella sonnei LRP 5) was greater than 25 µg/mL and the MIC ([16]; ATCC19424, solid medium, LRP 214, read-out: minimum inhibiting concentration) was 0.097 µg/mL (≈ 0.135 µM). It also gave an MIC (Escherichia coli LRP 50; LRP50, solid medium, LRP 50, read-out: minimum inhibiting concentration) of 25 µg/mL (≈ 34.8 µM), an MIC ([17]; LRP54, solid medium, LRP 54, read-out: minimum inhibiting concentration) of 25 µg/mL (≈ 34.8 µM) and an MIC ([18]; ATCC6380, solid medium, LRP 13, read-out: minimum inhibiting concentration) greater than 25 µg/mL. For the same molecule, the MIC (Salmonella typhi LRP 8) was 25 µg/mL (≈ 34.8 µM), the MIC ([19]; ATCC23206, solid medium, LRP 204, read-out: minimum inhibiting concentration) was 0.097 µg/mL (≈ 0.135 µM) and the MIC ([20]; ATCC14097, solid medium, LRP 211, read-out: minimum inhibiting concentration) was greater than 25 µg/mL. The MIC [21] was 1.56 µg/mL (≈ 2.17 µM), the MIC ([22]; ATCC23745, solid medium, LRP 205, anaerobic, read-out: minimum inhibiting concentration) was 0.195 µg/mL (≈ 0.272 µM) and the MIC [23] was 6.25 µg/mL (≈ 8.71 µM).
Work on `CC[C@H]1OC(=O)[C@H](C)[C@@H](O[C@H]2C[C@H](OC)[C@@H](O)[C@H](C)O2)[C@H](C)[C@@H](O[C@@H]2O[C@H](C)C[C@H](N(C)C)[C@H]2O)[C@](C)(O)C[C@](C)(O)C(=O)[C@H](C)[C@@H](O)[C@H]1C` [P 15148, 3-O-oleandrosyl-5-O-desosaminyl-(8S)-8-hydroxyerythronolide B] yielded an MIC ([1]; ATCC6538, read-out: minimum inhibiting concentration) of 1.56 µg/mL (≈ 2.17 µM), an MIC ([2]; LRP14, read-out: minimum inhibiting concentration) of 1.56 µg/mL (≈ 2.17 µM) and an MIC ([3]; LRP7, read-out: minimum inhibiting concentration) of 0.78 µg/mL (≈ 1.08 µM). For the same molecule, the MIC ([4]; ATCC12958, read-out: minimum inhibiting concentration) was 0.78 µg/mL (≈ 1.08 µM), the MIC ([5]; ATCC6303, read-out: minimum inhibiting concentration) was 0.195 µg/mL (≈ 0.271 µM) and the MIC ([6]; LRP52, read-out: minimum inhibiting concentration) was 0.195 µg/mL (≈ 0.271 µM). For the same molecule, the MIC ([7]; LRP53, read-out: minimum inhibiting concentration) was 0.097 µg/mL (≈ 0.135 µM), the MIC ([8]; ATCC8668, read-out: minimum inhibiting concentration) was 0.195 µg/mL (≈ 0.271 µM) and the MIC ([9]; LRP197, read-out: minimum inhibiting concentration) was 0.195 µg/mL (≈ 0.271 µM). For the same molecule, the MIC ([10]; LRP24, read-out: minimum inhibiting concentration) was 0.097 µg/mL (≈ 0.135 µM), the MIC ([11]; ATCC9341, read-out: minimum inhibiting concentration) was 0.049 µg/mL (≈ 0.0681 µM) and the MIC [12] was greater than 25 µg/mL. The MIC [13] was greater than 25 µg/mL, the MIC (Bacillus subtilis LRP 25; LRP25, read-out: minimum inhibiting concentration) was 0.78 µg/mL (≈ 1.08 µM) and the MIC [14] was greater than 25 µg/mL. For the same molecule, the MIC [15] was greater than 25 µg/mL, the MIC (Shigella sonnei LRP 5) was greater than 25 µg/mL and the MIC ([16]; ATCC19424, read-out: minimum inhibiting concentration) was 1.56 µg/mL (≈ 2.17 µM). For the same molecule, the MIC (Escherichia coli LRP 50; LRP50, read-out: minimum inhibiting concentration) was greater than 25 µg/mL, the MIC ([17]; LRP54, read-out: minimum inhibiting concentration) was greater than 25 µg/mL and the MIC ([18]; ATCC6380, read-out: minimum inhibiting concentration) was greater than 25 µg/mL. For the same molecule, the MIC (Salmonella typhi LRP 8) was 25 µg/mL (≈ 34.7 µM), the MIC ([19]; ATCC23206, read-out: minimum inhibiting concentration) was 6.25 µg/mL (≈ 8.68 µM) and the MIC ([20]; ATCC14097, read-out: minimum inhibiting concentration) was greater than 25 µg/mL. For the same molecule, the MIC [21] was 25 µg/mL (≈ 34.7 µM), the MIC ([22]; ATCC23745, read-out: minimum inhibiting concentration) was 6.25 µg/mL (≈ 8.68 µM) and the MIC [23] was greater than 25 µg/mL. The half-life (physchem; pH 2) was 27 h, the half-life (physchem; pH 3, read-out: t 1/2) was greater than 100 h and the half-life (physchem; pH 4, read-out: t 1/2) was greater than 100 h.
